From publication PMC3973022, “Quercetin and quercetin 3-O-glycosides from Bauhinia longifolia (Bong.) Steud. show anti-Mayaro virus activity” (Parasites & Vectors, 2014)
Converted amounts (≈) assume the structure as drawn. “Also recorded” adds a separate entry of the source.

Key:
[1] = Cytotoxicity by dye-uptake (neutral red) assay; settings: African green monkey
Procedure: (§1) Vero cells (African green monkey kidney, ATCC CCL-81) were grown at 37°C with 5% CO2, in Dulbecco’s modified Eagle’s medium (DMEM) (Life Technologies, USA) supplemented with 5% fetal bovine serum (Cultilab, BRA), 50 IU/mL of penicillin, and 50 μg/mL of streptomycin (Sigma-Aldrich, USA). Mayaro viruses (ATCC VR-66, lineage TR 4675) were propagated in Vero cells and viral stocks in 10% glycerol were kept at -70°C. Virus titer was determined by plaque assay (described under ‘Antiviral activity assay’).
Briefly, confluent cultures of Vero cells in 96-well microplates were treated with culture media containing different concentrations of the substances being tested. After 24 hours, the culture medium was replaced by a solution of 50 μg/mL neutral red and the cells were incubated for 3 hours, at 37°C, 5% CO2. Cells were then fixed with 20% formaldehyde and extracted with 50% methanol and 1% acetic acid, before measurement of absorbance at λ490 nm, using a spectrophotometer, to detect neutral red incorporation by living cells.

Mayaro virus (MAYV) = assay: microbe, parasite or virus in culture; assay type: cell-based; settings: for IC90: Vero, 24 h, read-out: IC90 (90% inhibitory concentration of viral replication); for IC50: read-out: IC50 (50% inhibitory concentration of viral replication), MAYV MOI 0.1 in Vero cells, 24 h treatment; for anti-MAYV activity (in words): concentrations tested 0–100 μg/ml
Procedure: as §1
Antiviral activity was evaluated using a virus yield inhibition assay. Briefly, confluent cell monolayers grown in 24-well plates were infected with MAYV (multiplicity of infection = 0.1) for 1 hour, then rinsed with PBS and treated for 24 hours (at 37°C and 5% CO2) with different concentrations (0–100 μg/ml) of flavonoids or extracts diluted in culture medium. After treatment, culture supernatants were recovered and used for titration of extracellular infectious virus particles. For virus titration, confluent cell monolayers in 24-well plates were infected with serial dilutions of recovered supernatants for 1 hour at 37°C, 5% CO2. After inoculum removal, cells were rinsed with PBS and the monolayer was incubated with fresh medium with 2% carboxymethylcellulose (Sigma-Aldrich, USA) for 48 hours at 37°C, 5% CO2. Finally, cells were fixed with 20% formaldehyde and stained with 0.5% crystal violet in 20% ethanol, and viral plaques were counted. […] P-values < 0.05 were considered statistically significant.

SMILES	CC50 at 24 h [1]	IC90 (Mayaro virus (MAYV); Mayaro virus)	IC50 (Mayaro virus (MAYV); Mayaro virus)	anti-MAYV activity (in words) (Mayaro virus (MAYV); Vero cells)	SI (Selectivity Index = CC50/IC50) (Mayaro virus (MAYV); CC50 in Vero cells / IC50 against MAYV)	inhibition at 25 µg/mL (Mayaro virus (MAYV); Mayaro virus, at 25 μg/mL, Vero cells, read-out: inhibition of MAYV replication/production)
O=c1c(OC2OCC(O)C(O)C2O)c(-c2ccc(O)c(O)c2)oc2cc(O)cc(O)c12 (stereo not drawn) [Guaijaverin, quercetin-3-O-α-arabinoside]	795 ± 54 µg/mL (≈ 1830 µM)	> 100 µg/mL	> 100 µg/mL	did not show significant antiviral activity; also recorded: absence of anti-MAYV activity		
O=c1c(O)c(-c2ccc(O)c(O)c2)oc2cc(O)cc(O)c12 [Quercetin, quercetin]	941 ± 123 µg/mL (≈ 3110 µM)	19 ± 0.7 µg/mL (≈ 62.9 µM)	10 ± 0.7 µg/mL (≈ 33.1 µM)	showed significant anti-MAYV activity	94	> 90%
C[C@@H]1O[C@@H](Oc2c(-c3ccc(O)c(O)c3)oc3cc(O)cc(O)c3c2=O)[C@H](O)[C@H](O)[C@H]1O [Quercitrin, quercetin-3-O-α-rhamnoside]	411 ± 46 µg/mL (≈ 917 µM)	> 100 µg/mL	> 100 µg/mL	did not show significant antiviral activity; also recorded: absence of anti-MAYV activity		
NC(=O)c1ncn([C@@H]2O[C@H](CO)[C@@H](O)[C@H]2O)n1 [Ribavirin, reference compound]	523 ± 42 µg/mL (≈ 2140 µM)	> 100 µg/mL	62 ± 4 µg/mL (≈ 254 µM)			
